Source: PMC4445455 (The FEBS journal, 2015)
Read-outs that look alike come from different tables or passages of the source.

What was measured:
[1] = previous study; cited from earlier work
E. coli DHFR [2] = molecular target: T1, E. coli DHFR (Escherichia coli, UniProt P0ABQ4); format: biochemical; details: for inhibition at 1 mM inhibitor concentration (in words): E. coli DHFR
human DHFR [3] = molecular target: T2, human DHFR (Homo sapiens, UniProt P00374); format: biochemical
T2 sequence (P00374 1-187): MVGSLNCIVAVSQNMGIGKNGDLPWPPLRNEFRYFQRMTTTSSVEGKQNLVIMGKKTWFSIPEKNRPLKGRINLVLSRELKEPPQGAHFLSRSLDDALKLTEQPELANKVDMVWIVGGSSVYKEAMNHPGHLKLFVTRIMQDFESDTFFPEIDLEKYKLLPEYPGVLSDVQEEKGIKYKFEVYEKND

cancer cells = details: previous study; cited from earlier work
E. coli DHFR [4] = molecular target: T1, E. coli DHFR; test: Progress curve analysis, slow tight binding; format: biochemical
human DHFR [5] = molecular target: T2, human DHFR; test: Progress curve analysis, slow tight binding, human DHFR; format: biochemical; details: time course of NADPH depletion
E. coli DHFR [6] = molecular target: T1, E. coli DHFR; test: Inhibition kinetics: substrate titration at fixed inhibitor concentrations; format: biochemical
human DHFR [7] = molecular target: T2, human DHFR; details: product inhibition; cited from earlier work
E. coli DHFR [8] = molecular target: T1, E. coli DHFR; details: product inhibition; cited from earlier work
[9] = IC-50, human DHFR 12.4 nM, 60 μM NADPH, 50 μM H2F, 100 mM HEPES pH 7.3

T1 sequence (P0ABQ4 whole entry): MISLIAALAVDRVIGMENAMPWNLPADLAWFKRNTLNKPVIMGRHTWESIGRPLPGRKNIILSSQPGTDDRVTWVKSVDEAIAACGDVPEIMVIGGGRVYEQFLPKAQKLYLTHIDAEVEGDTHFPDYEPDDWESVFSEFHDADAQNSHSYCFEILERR

SMILES	solubility in water (Solubility in water)	IC50 (E. coli DHFR [2]) [µM]	Ki (E. coli DHFR [2]) [µM]	inhibition at 1 mM inhibitor concentration (in words) (E. coli DHFR [2])	Ki (human DHFR [3]) [nM]	IC50 (human DHFR [3]; [9]) [µM]	other results
Nc1ccc(NC(=O)c2ccc(C(=O)Nc3ccc(N)cc3)cc2)cc1 [NNBABD, N,N'-bis(4-aminophenyl)benzene-1,4-dicarboxamide]	sparsely soluble in water	176.5 ± 1.1	10.9 ± 2.16	almost complete inhibition	5160 ± 1410	254.5 ± 1.79	bactericidal activity [1]: didn't show; activity against cancer cells (cancer cells): didn't show
Nc1ccc(-c2nc3nc(N)nc(N)c3nc2-c2ccc(N)cc2)cc1 [NSC61642, 6,7-bis (4-aminophenyl) pteridine-2,4-diamine, reference compound]	–	–	–	unambiguous inhibition	–	–	–
O=C(Nc1ccc(Oc2ccc(NC(=O)Nc3ccc([N+](=O)[O-])cc3)cc2)cc1)Nc1ccc([N+](=O)[O-])cc1 [NNCPPU, 1-(4-nitrophenyl)-3-[4-[4-[(4-nitrophenyl)carbamoylamino]phenoxy]phenyl]urea]	sparsely soluble in water	36.6 ± 1.1	2.06 ± 0.378	almost complete inhibition	1970 ± 329	68.9 ± 1.36	bactericidal activity [1]: didn't show; activity against cancer cells (cancer cells): didn't show
C#CCC(Cc1cnc2nc(N)nc(N)c2n1)c1ccc(C(=O)N[C@@H](CCC(=O)O)C(=O)O)cc1 (stereo partly drawn) [NSC754230, pralatrexate, reference compound]	–	–	–	unambiguous inhibition	–	–	–
C1=Cc2ccccc2Nc2ccccc21 [ISB, 2,2'-Iminostilbene]	sparsely soluble in water	587.8 ± 1.2	35.2 ± 5.36	–	–	–	IC50 (human DHFR [3]; IC-50, human DHFR, table footnote to ND): > 2000 µM
Nc1nc(N)c2c(ccc3[nH]ccc32)n1 [PQD, 7H-Pyrrolo(3,2-f)quinazoline-1,3-diamine, reference compound]	–	0.106 ± 0.0012	0.0042 ± 0.0005	unambiguous inhibition	93.4 ± 9	3.087 ± 0.0165	Kd (E. coli DHFR [4]): 4.48 ± 0.63 nM; kon (E. coli DHFR [4]): 350000 M⁻¹ s⁻¹; mode of inhibitor binding (time dependence, in words) (E. coli DHFR [4]; E. coli DHFR progress curves): classical tight-binding reversible inhibition; koff (E. coli DHFR [4]; time-dependent inactivation, 50 μM H2F, 60 μM NADPH): 0.094 ± 0.010 min^1; mode of inhibitor binding (time dependence, in words) (human DHFR [5]): didn't show any slow-onset of inhibition; Ki (E. coli DHFR [6]): 3.18 ± 0.51 nM; αKi (E. coli DHFR [6]; uncompetitive inhibition, NADPH titrated): 72.17 ± 4.23 nM; IC50 (human DHFR [3]; IC-50, human DHFR): 3.09 ± 0.17 µM; fold reduction in potency (IC-50) for human DHFR vs E. coli DHFR (human DHFR [3]; selectivity human/E. coli): 30 fold
NC(=O)c1ccc[n+]([C@@H]2O[C@H](COP(=O)([O-])OP(=O)(O)OC[C@H]3O[C@@H](n4cnc5c(N)ncnc54)[C@H](OP(=O)(O)O)[C@@H]3O)[C@@H](O)[C@H]2O)c1 [NADP^+]	–	–	–	–	–	–	IC50 (human DHFR [7]): ~620 µM; IC50 (E. coli DHFR [8]): ~5 mM
Nc1nc2[nH]cc(CCc3ccc(C(=O)N[C@@H](CCC(=O)O)C(=O)O)cc3)c2c(=O)[nH]1 [NSC698037, pemetrexed, reference compound]	–	–	–	unambiguous inhibition	–	–	–
